Test system: subclinical sun damage
Assay: Follow-up treatments of one patient on a substantially annual basis
Type: in vivo, human
Conditions: each time after the first treatment
Excerpt: In order to assess the scope of original treatment, one patient received further treatments over a substantially annual basis. In Table 4, treatment #, days since last treatment, and observations are provided. […] From this, it was concluded that all of the subclinical sun damage treated most likely resolved during each cycle of therapy. Subsequent milder reactions appear to have treated new subclinical sun damage or possible recurrent sun damage. […] The freckle also resolved itself after follow-up treatment #1. During follow-up treatment #2, FIG. 4C, there was no sign of the freckle. That is, where there may not have been a response during an earlier treatment, a subsequent treatment invoked a response. Moreover, responses to successive treatments, if any, were not as severe as the initial response. […] It is also concluded that annual treatment aids in preventing actinic keratoses from forming as well as eliminates any new sun damage.

For `O=c1[nH]cc(F)c(=O)[nH]1` [5-FU, 5-fluorouracil], the “response in follow-up treatments” value was “mild erythema”.

Reference: patent US8658619B2, “Methods of treating subclinical sun damage” (priority 2010, dated 2014)
